Molecular target: Glycogen synthase kinase-3 beta (Homo sapiens, UniProt P49841)
Assay: concentration-response blocking of human GSK3B – biochemical, luminescence, cell-free homogeneous, retest, dose response (AID 434954)

Sequence of Glycogen synthase kinase-3 beta (P49841 whole entry): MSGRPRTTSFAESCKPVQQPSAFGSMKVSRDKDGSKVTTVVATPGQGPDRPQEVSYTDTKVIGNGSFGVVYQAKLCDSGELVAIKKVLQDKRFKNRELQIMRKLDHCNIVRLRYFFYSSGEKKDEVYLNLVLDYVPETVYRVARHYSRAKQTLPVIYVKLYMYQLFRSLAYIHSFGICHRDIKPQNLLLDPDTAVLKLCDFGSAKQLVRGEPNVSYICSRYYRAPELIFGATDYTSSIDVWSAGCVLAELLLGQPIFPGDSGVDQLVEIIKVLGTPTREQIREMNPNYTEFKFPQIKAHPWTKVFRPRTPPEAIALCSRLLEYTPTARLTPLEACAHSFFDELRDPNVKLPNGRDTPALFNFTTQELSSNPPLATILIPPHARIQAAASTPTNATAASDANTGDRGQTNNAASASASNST

Row | EC50 [µM] | Structure (SMILES)
1 | 15.4 | Cc1cc(C)n2nc(C(=O)NN=Cc3ccc(O)cc3)nc2n1 [5,7-dimethyl-N'-[(4-oxocyclohexa-2,5-dien-1-ylidene)methyl]-[1,2,4]triazolo[1,5-a]pyrimidine-2-carbohydrazide]
2 | 46.5 | C=CCNc1nc(N)c([N+](=O)[O-])c(NCCO)n1 [2-(2-Allylamino-6-amino-5-nitro-pyrimidin-4-ylamino)-ethanol]
3 | > 300 | CCC(=O)n1nc(-c2ccc(OC)cc2)nc1N [MLS000043495]
4 | > 300 | COc1ccccc1N1CCN(/N=C/c2ccc(Cl)c([N+](=O)[O-])c2)CC1
5 | > 300 | COc1ccccc1-c1ccc(=O)n(CC(=O)NCc2ccco2)n1 [N-(furan-2-ylmethyl)-2-[3-(2-methoxyphenyl)-6-oxidanylidene-pyridazin-1-yl]ethanamide]
6 | > 300 | CCCCC(=O)Nc1cc(C)c(NC(=O)c2cccs2)cn1 [N-[4-methyl-6-(1-oxopentylamino)-3-pyridinyl]-2-thiophenecarboxamide]
7 | > 300 | CCn1c(COc2ccccc2)nnc1SCC(=O)NC1CC1
8 | 0.662 | COc1ccc(Nc2nc(N)c(C(=O)c3ccc(F)cc3)s2)cc1 [{4-amino-2-[(4-methoxyphenyl)amino]-1,3-thiazol-5-yl}(4-fluorophenyl)methanone]
9 | > 300 | O=C(NCCc1nnc2ccc(NCC3CCCO3)nn12)c1ccccc1 (centres undefined) [N-(2-{6-[(tetrahydrofuran-2-ylmethyl)amino][1,2,4]triazolo[4,3-b]pyridazin-3-yl}ethyl)benzamide]
10 | > 300 | COc1ccc(-c2nn(-c3ccccc3)cc2/C=C(\C#N)S(=O)(=O)c2ccccc2)cc1OC [(E)-2-(benzenesulfonyl)-3-[3-(3,4-dimethoxyphenyl)-1-phenyl-4-pyrazolyl]-2-propenenitrile]
11 | > 300 | COc1ccccc1C(=O)Oc1ccc(C(C)(C)C)cc1
12 | > 300 | CCOC(=O)COC(=O)c1ccc(O)cc1 [(2-ethoxy-2-oxoethyl) 4-hydroxybenzoate]
13 | 9.17 | CCN(CC)Cc1c(C(=O)NN=Cc2cccnc2)nnn1-c1nonc1N [1-(4-amino-1,2,5-oxadiazol-3-yl)-5-(diethylaminomethyl)-N-(3-pyridinylmethylideneamino)-4-triazolecarboxamide]
14 | > 300 | CCN1CCN(CC2COc3ccccc3O2)CC1 (centres undefined) [MLS001173643]
15 | > 300 | Cc1ccnc(NC(=O)c2ccccc2[N+](=O)[O-])c1 [N-(4-methylpyridin-2-yl)-2-nitro-benzamide]
16 | > 300 | COc1cccc(C(=O)Nc2nc3ccccc3s2)c1 [N-Benzothiazol-2-yl-3-methoxy-benzamide]
17 | 77.5 | CCSc1ncnc2c(C#N)c3n(c12)CCCCC3 [4-ethylsulfanyl-7,8,9,10-tetrahydro-6H-pyrimido[3,4]pyrrolo[3,5-a]azepine-11-carbonitrile]
18 | > 300 | O=C(Cn1cc[n+](CC(=O)c2ccc(Cl)cc2Cl)c1)c1ccc(Cl)cc1Cl [1,3-Bis-[2-(2,4-dichloro-phenyl)-2-oxo-ethyl]-3H-imidazol-1-ium]
19 | > 300 | CCCCC(=O)Nc1nc2c(OC)cc([N+](=O)[O-])cc2s1 [SMR000363192]
20 | > 300 | CCCNC(=O)c1ccc(Cl)cc1Cl [SMR000528064]
21 | > 300 | CCCc1c(C(=O)NN=Cc2ccncc2)nnn1-c1nonc1N
22 | > 300 | CCOC(=O)COc1ccc(C(=O)c2ccccc2)c(O)c1 [(4-Benzoyl-3-hydroxy-phenoxy)-acetic acid ethyl ester]
23 | > 300 | Cc1cc(=O)nc2c3ccccc3n(CC(=O)NCCCN3CCCCC3C)n12 (centres undefined) [MLS001115992]
24 | > 300 | CN(C)Cc1c(O)ccc2c(-c3ccccc3)cc(=O)oc12 [SMR000277276]
25 | 1.73 | Nc1nc(Nc2cccc(Cl)c2)nc(NCCO)c1[N+](=O)[O-]

Row | EC50 [µM] | Structure (SMILES)
26 | > 300 | Cc1c(NC(=O)C(C)n2cc([N+](=O)[O-])cn2)c(=O)n(-c2ccccc2)n1C (centres undefined) [N-(1,5-dimethyl-3-oxo-2-phenylpyrazol-4-yl)-2-(4-nitropyrazol-1-yl)propanamide]
27 | 20.1 | CCC(Sc1ccc2nnc(-c3ccc(F)cc3)n2n1)C(=O)OC (centres undefined) [MLS000093330]
28 | 17.4 | CCCC1=Nc2ncnn2C(c2ccco2)C1C(=O)OCC (centres undefined) [ethyl 7-(furan-2-yl)-5-propyl-1,7-dihydro-[1,2,4]triazolo[1,5-a]pyrimidine-6-carboxylate]
29 | > 300 | c1ccc(CNCC2COc3ccccc3O2)cc1 (centres undefined) [Benzyl-(2,3-dihydro-benzo[1,4]dioxin-2-ylmethyl)-amine]
30 | > 300 | Cc1ccc2c(c1)N(C(=O)CCC(=O)NCc1ccccc1)CC(C)O2 (centres undefined)
31 | > 300 | CC1(C)CC(CCNC(=O)CCl)(c2ccccc2)CCO1 (centres undefined) [MLS000779552]
32 | > 300 | Fc1ccccc1Cn1c2[n+](c3ccc(C(F)(F)F)cc31)CCCCC2
33 | > 300 | N#Cc1c(-c2cccs2)nc(SCc2ccc(Cl)cc2)[nH]c1=O [MLS000705749]
34 | > 300 | CCc1cccc(C)c1NC(=O)CSc1nnc(CCCOc2ccc(Cl)cc2Cl)n1C [2-({5-[3-(2,4-dichlorophenoxy)propyl]-4-methyl-4H-1,2,4-triazol-3-yl}thio)-N-(2-ethyl-6-methylphenyl)acetamide]
35 | > 300 | COc1ccc(Nc2nc(Nc3ccc(OC)cc3)nc(-n3[nH]c(=O)c(C)c3C)n2)cc1 [2-[4,6-bis(4-methoxyanilino)-1,3,5-triazin-2-yl]-3,4-dimethyl-1H-pyrazol-5-one]
36 | > 300 | CCc1ccc(NC(=O)C(NS(=O)(=O)c2cccc3nsnc23)c2ccccc2)cc1 (centres undefined) [2-(2,1,3-benzothiadiazol-4-ylsulfonylamino)-N-(4-ethylphenyl)-2-phenyl-ethanamide]
37 | > 300 | Cc1nn(C)c(C)c1S(=O)(=O)N(CC(=O)Nc1nccs1)c1ccc(C(C)C)cc1 [MLS000118397]
38 | 20.1 | CN(C)C=NC(=O)C(C#N)C1=Nc2ccccc2CC1 (centres undefined)
39 | 4.17 | COc1cc(C=Nn2c(C3CCCCC3)n[nH]c2=S)cc(Br)c1O [MLS001164684]
40 | > 300 | Cc1cc(CNC(=O)C(C)n2cc([N+](=O)[O-])cn2)c2ccccc2n1 (centres undefined) [SMR000307388]
41 | > 300 | CC1CCCCC1NS(=O)(=O)c1ccc2c(c1)CC(=O)N2C (centres undefined)
42 | > 300 | COC(=O)c1ccc(NC(C(=O)OC)C(C)C)c([N+](=O)[O-])c1 (centres undefined) [methyl 4-[(1-methoxy-3-methyl-1-oxidanylidene-butan-2-yl)amino]-3-nitro-benzoate]
43 | > 300 | CS(=O)(=O)c1nncn1-c1ccccc1 [MLS000062086]
44 | > 300 | COCCCNC(=O)c1ccc(CS(=O)(=O)c2ccc(OC)cc2)o1 [5-[(4-methoxyphenyl)sulfonylmethyl]-N-(3-methoxypropyl)furan-2-carboxamide]
45 | > 300 | Nc1nc(NCc2ccccc2)nc(Nc2ccc(F)cc2)c1[N+](=O)[O-] [2-N-benzyl-4-N-(4-fluorophenyl)-5-nitropyrimidine-2,4,6-triamine]
46 | 15.9 | COC(=O)c1nnn(-c2nonc2N)c1CSc1ccc(Cl)cc1
47 | > 300 | COc1ccc(-c2nc(-c3ccccc3)[nH]c(=O)c2C#N)cc1 [SMR000168458]
48 | 30.2 | CSc1nc(NCc2ccco2)c2c3c(sc2n1)CN(C)CC3 [MLS000082597]
49 | 11.2 | Cc1ccc(C(=O)c2coc3ccc(O)cc23)cc1 [SMR000539213]
